Measurements as given in article PMC9377723 (Clinical Cancer Research, 2021).
“Also recorded” adds a separate entry of the source. Where two headings read alike, the source gives them in different places.

Columns and labels:
[1] = tested on: patients with HR+/HER2− advanced breast cancer; assay: MONALEESA-7 adverse events; assay type: in vivo; conditions: adverse event of special interest
[2] = tested on: HR+/HER2− advanced breast cancer; conditions: cited from earlier work
[3] = Steady-state plasma pharmacokinetics; assay type: in vivo, patients
[4] = tested on: HR+/HER2− advanced breast cancer; assay type: in vivo, patients; conditions: for Median PFS: updated analysis
plasma estradiol = assay: Plasma estradiol concentration, baseline vs cycle 3 day 15; assay type: in vivo, patients
[5] = patients less than 40 years of age

## CN(C)C(=O)c1cc2cnc(Nc3ccc(N4CCNCC4)cn3)nc2n1C1CCCC1 [Ribociclib, ribociclib]
[1]
  Hepatobiliary toxicity, grade 3 or 4: 12%
  Neutropenia, grade 3 or 4: 65%
  Prolonged QT interval, grade 3 or 4: 2%
[2]; median follow-up 34.6 months
  Median OS, prespecified second interim (final) analysis: not reached
[2]; primary analysis
  Median PFS (primary endpoint): 23.8 months
[3]; in vivo
  Drug–drug interaction between ribociclib and NSAI partner: No drug–drug interactions; also recorded: no apparent drug–drug interaction
[4]; Age: <40 years
  mOS (median overall survival): 51.3 months
[4]; Age: ≥40 years
  mOS (median overall survival): 58.8 months
[4]; All patients
  Increase in survival over the MONALEESA-7 placebo arm: 22%
  Kaplan–Meier estimated OS at 48 months (survival rate at 4 years): 60%
  Median chemotherapy-free survival (CFS): 42.4 months
  PFS2 HR (95% CI) vs placebo: 0.68
  PFS2 Median: 44.2 mo
  Patients who had died at data cut-off: 42%
  Patients who received chemotherapy as a subsequent therapy at any time: 43%
  Patients with disease progression on subsequent therapy or death (PFS2 events): 53%
  Patients with receipt of chemotherapy or death: 57%
  Survival rate at 54 months: 53%
[4]; All patients, 58.7 vs 48.0 months
  Improvement in OS over ET alone: 10.7 months
[4]; All patients, median follow-up 53.5 months
  mOS (median overall survival): 58.7 months
[4]; Chemotherapy (metastatic): Yes
  mOS (median overall survival): 47.2 months
[4]; Disease-free interval: De novo
  mOS (median overall survival): not reached
[4]; Endocrine combination partner: NSAI and goserelin
  mOS (median overall survival): 58.7 months
[4]; Endocrine combination partner: Tamoxifen and goserelin
  mOS (median overall survival): not estimable
[4]; Patients receiving an NSAI
  Patients who died: 43%
[4]; Patients receiving tamoxifen
  Patients who died: 39%
[4]; difference in median chemotherapy-free survival
  Delay in chemotherapy vs placebo, without censoring: 16.0 month
[4]; difference in median time to first chemotherapy
  Delay in chemotherapy vs placebo, censoring for death: 14.1 month
[4]; in vivo
  Median time to first chemotherapy (TTC): 50.9 months
[4]; overall
  Duration of first subsequent antineoplastic therapy after discontinuation of study treatment: 7.5 months
[4]; [5]
  Reduction in the risk of death: 35%
  Median PFS: 29.7 months
[4]; patients ≥40 years of age
  Median PFS: 26.4 months
Plasma estradiol; 86 of 90 patients
  Patients with estradiol below the minimum detectable limit (0.5 pg/mL): 96%
Plasma estradiol; patients who received an NSAI
  Mean percentage decrease in plasma estradiol concentration compared with baseline: 89%

## CC/C(=C(\c1ccccc1)c1ccc(OCCN(C)C)cc1)c1ccccc1 [Tamoxifen, tamoxifen]
[3]; tamoxifen 20 mg
  Exposure with ribociclib versus placebo: approximately 2 times
